Results taken from US7935819B2, “Cyclic urea derivatives, preparation thereof and pharmaceutical use thereof as kinase inhibitors” (Aventis Pharma S.A., priority 2006, dated 2011).
Where two headings read alike, the source gives them in different places.

Experiments:
[1] = molecular target: T1, IGF-1R (human cytoplasmic domain fused with GST) (Homo sapiens, UniProt P08069); experiment: Kinase IGF-1R test (Test A): inhibition of autophosphorylation of the enzyme, HTRF; assay type: biochemical; details: 120 μM ATP
T1 construct: The human cytoplasmic domain of IGF-1R was cloned by fusion with glutathione S-transferase (GST); made in house; host or cells: SF21 insect cells (baculovirus, pFastBac-GST)
T1 sequence (P08069 960-1367 limits assumed): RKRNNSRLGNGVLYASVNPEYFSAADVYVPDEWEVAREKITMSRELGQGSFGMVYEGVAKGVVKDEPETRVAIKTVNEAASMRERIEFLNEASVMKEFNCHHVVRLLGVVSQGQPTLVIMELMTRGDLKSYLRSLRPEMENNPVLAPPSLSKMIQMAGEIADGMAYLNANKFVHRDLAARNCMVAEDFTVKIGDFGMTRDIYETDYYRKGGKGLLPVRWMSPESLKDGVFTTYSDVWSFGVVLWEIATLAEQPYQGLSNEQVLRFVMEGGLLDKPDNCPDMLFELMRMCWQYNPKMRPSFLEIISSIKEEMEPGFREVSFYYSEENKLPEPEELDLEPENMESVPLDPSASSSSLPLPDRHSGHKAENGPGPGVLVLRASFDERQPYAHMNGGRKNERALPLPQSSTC
Experimental: A) Experimental Protocol for the Kinase IGF-1R Test:
The inhibitory activity of the compounds on IGF1R is determined by measuring the inhibition of autophosphorylation of the enzyme using a time-resolved fluorescence test (HTRF). The human cytoplasmic domain of IGF-1R was cloned by fusion with glutathione S-transferase (GST) in the baculovirus expression vector pFastBac-GST. The protein is expressed in the SF21 cells and purified to about 80% homogeneity. For the enzymatic test, the test compound at 10 mM dissolved in DMSO is diluted in 1/3 steps in a 50 mM Hepes, pH 7.5, 5 mM MnCl2, 50 mM NaCl, 3% Glycerol, 0.025% Tween 20 buffer. To measure the inhibition, the successive dilutions of the compound are preincubated for 30 minutes and 90 minutes in the presence of 5 nM of enzyme, the final DMSO concentration not exceeding 1%. The enzymatic reaction is initiated to have a final ATP concentration of 120 μM, and is stopped after 5 minutes by addition of 100 mM Hepes, pH 7.0 buffer containing 0.4 M of potassium fluoride, 133 mM EDTA, 0.1% BSA, the XL665-labelled antibody anti-GST and the anti-phosphotyrosine antibody conjugated to europium cryptate Eu—K (Cis-Bio Int.). The characteristics of the two fluorophores, XL-665 and Eu—K, are available in G. Mathis et al., Anticancer Research, 1997, 17, pages 3011-3014. The energy transfer between the excited europium cryptate to the acceptor XL665 is proportional to the degree of autophosphorylation of IGF-1R. The specific long-lasting signal of XL-665 is measured in a GENios Pro TECAN plate counter. The inhibition of autophosphorylation of IGF-1R at time 30 minutes and 90 minutes with the test compounds of the invention is calculated relative to a 1% in DMSO control, whose activity is measured in the absence of compound. The curve representing the percentage of inhibition as a function of the log of the concentration is established to determine the concentration corresponding to 50% inhibition (IC50).

[2] = molecular target: MEF-IGF1R cells (stable clone transfected with hIGF-1R) (Homo sapiens, UniProt P08069); experiment: Proliferation/viability of MEF-IGF1R (Test C), [14C]thymidine incorporation; assay type: cell-based; details: rhIGF1 100 ng/mL, 72 hours, read-out: Test C IC50
Sequence of MEF-IGF1R cells (stable clone transfected with hIGF-1R) (P08069 whole entry, change not shown): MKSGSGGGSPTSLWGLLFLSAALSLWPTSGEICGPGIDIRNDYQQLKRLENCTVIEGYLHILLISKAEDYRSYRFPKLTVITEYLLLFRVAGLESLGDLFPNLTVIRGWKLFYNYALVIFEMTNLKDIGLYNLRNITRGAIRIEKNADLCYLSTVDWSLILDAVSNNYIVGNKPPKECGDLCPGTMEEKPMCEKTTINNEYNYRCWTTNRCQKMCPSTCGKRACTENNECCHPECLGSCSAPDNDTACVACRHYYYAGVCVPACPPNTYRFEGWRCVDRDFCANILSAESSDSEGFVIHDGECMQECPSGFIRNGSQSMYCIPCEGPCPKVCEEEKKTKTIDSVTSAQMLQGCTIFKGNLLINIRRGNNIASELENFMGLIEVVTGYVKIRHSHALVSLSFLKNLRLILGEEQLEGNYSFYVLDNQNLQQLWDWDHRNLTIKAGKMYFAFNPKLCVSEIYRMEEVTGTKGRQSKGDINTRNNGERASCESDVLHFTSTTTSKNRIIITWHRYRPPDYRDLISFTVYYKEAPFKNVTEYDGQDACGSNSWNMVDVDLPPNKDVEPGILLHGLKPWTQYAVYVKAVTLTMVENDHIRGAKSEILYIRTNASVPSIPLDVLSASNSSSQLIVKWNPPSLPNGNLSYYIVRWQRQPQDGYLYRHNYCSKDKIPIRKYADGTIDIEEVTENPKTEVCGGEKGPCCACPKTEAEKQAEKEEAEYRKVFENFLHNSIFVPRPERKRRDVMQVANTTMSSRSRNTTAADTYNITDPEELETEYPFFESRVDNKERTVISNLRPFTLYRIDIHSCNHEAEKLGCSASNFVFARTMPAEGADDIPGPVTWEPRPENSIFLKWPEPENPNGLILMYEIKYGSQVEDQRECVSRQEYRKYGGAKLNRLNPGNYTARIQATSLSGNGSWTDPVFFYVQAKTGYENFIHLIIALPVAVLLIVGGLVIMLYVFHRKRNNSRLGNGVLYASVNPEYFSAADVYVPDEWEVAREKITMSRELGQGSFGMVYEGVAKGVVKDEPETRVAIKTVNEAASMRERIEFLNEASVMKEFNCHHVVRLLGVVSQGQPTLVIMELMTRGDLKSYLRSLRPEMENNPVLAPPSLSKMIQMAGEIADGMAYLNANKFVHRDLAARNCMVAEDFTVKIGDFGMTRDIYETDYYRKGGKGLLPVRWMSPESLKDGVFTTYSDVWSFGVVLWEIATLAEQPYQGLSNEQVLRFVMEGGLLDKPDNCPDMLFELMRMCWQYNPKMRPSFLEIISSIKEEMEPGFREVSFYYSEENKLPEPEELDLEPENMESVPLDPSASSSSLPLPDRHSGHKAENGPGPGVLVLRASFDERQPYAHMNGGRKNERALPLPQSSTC
Experimental: C) Measurement of the Proliferation/Viability of MEF-IGF1R
Cell culture: the MEF-IGF1R cells (stable clone of cells transfected with the receptor hIGF-1R) are cultured at 37° C. under 5% CO2 in EMEM medium containing 10% FCS.
Test procedure: the cells are seeded at 5000 cells per well in 96-well Cytostar plates (Amersham) with 0.2 mL of EMEM culture medium at 37° C. for 18 hours. The cells are then washed twice with EMEM medium and left to culture without serum for 24 hours. The compounds are then added at various concentrations in the presence of rhIGF1 (100 ng/mL) and 0.1 μCi of Thymidine [^14C] (specific activity ˜50 mCi/mmol) to give 0.2 mL of volume per well. After incubation for 72 hours in the presence of the compound, at 37° C. under 5% CO2, the incorporation of Thymidine [^14C] is measured by counting the radioactivity on a Microbeta trilux counter (Perkin-Elmer). The IC50 is determined from 10 increasing concentrations of the compound.
(i) The tests are performed in duplicate and the mean of the two tests is calculated.
(ii) The value of the signal of the maximum response is calculated from the positive control: cells stimulated with IGF1 without compound.
(iii) Value of the signal of the minimum response is calculated from the negative control: cells not stimulated with IGF1 without compound.
(iv) By using these values as maximum (100%) and minimum (0%), respectively, the data were normalized so as to give a percentage of the maximum response.
(v) A curve of dose response is plotted and the IC50 (the concentration of which the compound induces a 50% decrease in the signal) of the compound is calculated by non-linear regression analysis.

[3] = preincubation with enzyme 30 minutes, read-out: Test A 30′ IC50
[4] = preincubation with enzyme 90 minutes, read-out: Test A 90′ IC50

Compound | IC50 [1, 3] [nM] | IC50 [1, 4] [nM] | GI50 [2] [nM]
CC(C)(C)c1ccc(N2C(=O)N(Cc3ccnc(N)n3)C(C)(C)C2=O)cc1 [Example 1 Stage f), 1-[(2-aminopyrimidin-4-yl)methyl]-3-(4-tert-butylphenyl)-5,5-dimethylimidazolidine-2,4-dione] | 10 to 100 | 10 to 100 | > 100
CN(C)C(=O)Nc1nccc(CN2C(=O)N(c3ccc(C(C)(C)C)cc3)C(=O)C2(C)C)n1 [Example 2, 3-(4-{[3-(4-tert-butylphenyl)-5,5-dimethyl-2,4-dioxoimidazolidin-1-yl]methyl}pyrimidin-2-yl)-1,1-dimethylurea] | > 100 | > 100 | > 100
CN(C)C(=O)Nc1cc(CN2C(=O)N(c3ccc4c(c3)N(C(=O)CNC3CCCC3)CC4(C)C)C(=O)C2(C)C)ccn1 [Example 3, 3-[4-({3-[1-(N-cyclopentylglycyl)-3,3-dimethyl-2,3-dihydro-1H-indol-6-yl]-5,5-dimethyl-2,4-dioxoimidazolidin-1-yl}methyl)pyridin-2-yl]-1,1-dimethylurea] | > 100 | 10 to 100 | 10 to 100
CC(C)(C)c1ccc(N2C(=O)N(Cc3ccnc(NC(=O)NCCCN4CCCC4)c3)C(C)(C)C2=O)cc1 [Example 9, 1-(4-{[3-(4-tert-butylphenyl)-5,5-dimethyl-2,4-dioxoimidazolidin-1-yl]methyl}pyridin-2-yl)-3-(3-pyrrolidin-1-ylpropyl)urea] | 10 to 100 | 10 to 100 | > 100
CC(C)(C)c1ccc(N2C(=O)N(Cc3ccnc(NC(=O)NCCN4CCCC4)c3)C(C)(C)C2=O)cc1 [Example 11, 1-(4-{[3-(4-tert-butylphenyl)-5,5-dimethyl-2,4-dioxoimidazolidin-1-yl]methyl}pyridin-2-yl)-3-(2-pyrrolidin-1-ylethyl)urea] | 10 to 100 | 10 to 100 | > 100

Further lines, with some results ahead:

IC50 [1, 3] [nM] | IC50 [1, 4] [nM] | Compound | GI50 [2] [nM]
10 to 100 | 10 to 100 | CC1(C)CN(C(=O)CNC2CCCC2)c2cc(N3C(=O)N(Cc4ccnc(Nc5cccnc5)c4)C(C)(C)C3=O)ccc21 [Example 4, 3-[1-(N-cyclopentylglycyl)-3,3-dimethyl-2,3-dihydro-1H-indol-6-yl]-5,5-dimethyl-1-{[2-(pyridin-3-ylamino)pyridin-4-yl]methyl}imidazolidine-2,4-dione] | < 10
10 to 100 | 10 to 100 | CC1(C)C(=O)N(c2ccc(OC(F)(F)F)c(NC(=O)[C@H](N)c3ccccc3)c2)C(=O)N1Cc1ccnc(Nc2cccnc2)c1 [Example 5a, (2R)-2-amino-N-[5-(4,4-dimethyl-2,5-dioxo-3-{[2-(pyridin-3-ylamino)pyridin-4-yl]methyl}imidazolidin-1-yl)-2-(trifluoromethoxy)phenyl]-2-phenylacetamide] | < 10
> 100 | 10 to 100 | CN(C)C(=O)Nc1cc(CN2C(=O)N(c3ccc(OC(F)(F)F)c(NC(=O)[C@H](N)c4ccccc4)c3)C(=O)C2(C)C)ccn1 [Example 6a, (2R)-2-amino-N-{5-[3-({2-[(dimethylcarbamoyl)amino]pyridin-4-yl}methyl)-4,4-dimethyl-2,5-dioxoimidazolidin-1-yl]-2-(trifluoromethoxy)phenyl}-2-phenylacetamide] | < 10
10 to 100 | 10 to 100 | CC(C)(C)c1ccc(N2C(=O)N(Cc3ccnc(Nc4cncnc4)c3)C(C)(C)C2=O)cc1 [Example 7, 3-(4-tert-butylphenyl)-5,5-dimethyl-1-{[2-(pyrimidin-5-ylamino)pyridin-4-yl]methyl}imidazolidine-2,4-dione] | > 100
10 to 100 | 10 to 100 | CC(C)(C)c1ccc(N2C(=O)N(Cc3ccnc(NC(=O)NC4CCCC4)c3)C(C)(C)C2=O)cc1 [Example 10, 1-(4-{[3-(4-tert-butylphenyl)-5,5-dimethyl-2,4-dioxoimidazolidin-1-yl]methyl}pyridin-2-yl)-3-cyclopentylurea] | > 100
